Experimental data from ChEMBL document CHEMBL3588748, “Original 2-(3-Alkoxy-1H-pyrazol-1-yl)azines Inhibitors of Human Dihydroorotate Dehydrogenase (DHODH)” (J Med Chem, 2015).
Activity calls are given as the source filed them. No rule for the calls is given here.

What was measured:
Plasmodium falciparum = assay: Antiplasmodial activity against Plasmodium falciparum 3D7 assessed as inhibition of parasite growth at 8.66 ug/ml by SYBR Green I dye based assay; format: functional, organism-based

Description for Measles morbillivirus: Antiviral activity against measles virus rMV2/Luc infected in HEK-293T cells assessed as inhibition of virus growth incubated for 24 hrs by firefly luciferase reporter gene assay

Row | SMILES | growth inhibition (GI) (Plasmodium falciparum) | pMIC50 (Measles morbillivirus)
1 | Cc1c(Oc2ccc(F)cc2F)c(OC(C)C)nn1-c1ccc(C2CC2)nn1 | inactive | 6.4
2 | CCOc1nn(-c2ccc(C3CC3)cn2)c(C)c1Oc1cccc(C(F)(F)F)c1 | inactive | 7.1
3 | CCOc1nn(-c2ccc(C#N)cn2)c(C)c1Cc1ccccc1 | inactive | <5
4 | CCOc1nn(-c2ccc(C3CC3)cn2)c(C)c1Oc1ccccc1C(F)(F)F | inactive | 7.3
5 | CCCc1cnc(-n2nc(OC(C)C)c(Oc3c(F)cccc3F)c2C)c(F)c1 | inactive | 6.7
6 | Cc1c(Oc2c(F)cccc2F)c(OC(C)C)nn1-c1cnc(C2CC2)cn1 | inactive | 
7 | CCOc1nn(-c2ccccn2)c(C)c1Cc1ccccc1 | inactive | <5
8 | CCOc1nn(-c2ccc(C3CC3)cn2)c(C)c1Oc1ccccc1Br | inactive | 7.8
9 | Cc1c(Oc2c(F)cccc2F)c(OC(C)C)nn1-c1ccc(C(F)(F)F)cn1 | inactive | 6.5
10 | CCc1ccc(-n2nc(OC(C)C)c(Oc3c(F)cccc3F)c2C)cn1 | inactive | 
11 | Cc1c(Oc2c(F)cccc2F)c(OC(C)C)nn1-c1cnc(C2CC2)nc1 | inactive | 6.8
12 | COc1ccc(-n2nc(OC(C)C)c(Oc3c(F)cccc3F)c2C)cn1 | inactive | 
13 | CCc1cnc(-n2nc(OC(C)C)c(Oc3c(F)cccc3F)c2C)c(F)c1 | inactive | 7.1
14 | Cc1c(Oc2c(F)cccc2F)c(OC(C)C)nn1-c1ncc(C2CC2)cc1N(C)C | inactive | 7.5
15 | Cc1c(Oc2cc(F)ccc2F)c(OC(C)C)nn1-c1ccc(C2CC2)nn1 | inactive | 7
16 | CCOc1nn(-c2ccc(C3CC3)cn2)c(C)c1Oc1cc(Cl)ccc1Cl | inactive | 7.1
17 | CCOc1nn(-c2cccc(C)n2)c(C)c1Cc1ccccc1 | inactive | <5
18 | CCOc1nn(-c2ccc(C(C)=O)cn2)c(C)c1Cc1ccccc1 | inactive | <5
19 | CCOc1nn(-c2ccc(Br)cn2)c(C)c1Cc1ccccc1 | inactive | 5.3
20 | Cc1c(Oc2cc(F)ccc2F)c(OC(C)C)nn1-c1ccc(C2CC2)cn1 | inactive | 7.4

Row | SMILES | growth inhibition (GI) (Plasmodium falciparum) | pMIC50 (Measles morbillivirus)
21 | CCOc1nn(-c2ccc(C(=O)OC)cn2)c(C)c1Cc1ccccc1 | inactive | <5
22 | CCOc1nn(-c2ccc(C3CC3)nn2)c(C)c1Oc1ccccc1F | inactive | 7.7
23 | Cc1c(Oc2cccc(F)c2)c(OC(C)C)nn1-c1ccc(C2CC2)cn1 | inactive | 6.8
24 | CCOc1nn(-c2ccc(C(C)(C)O)cn2)c(C)c1Cc1ccccc1 | inactive | 5.3
25 | CCOc1nn(-c2ccc(C3CC3)cn2)c(C)c1Cc1ccccc1 | inactive | 7
26 | Cc1ccc(-n2nc(OC(C)C)c(Oc3c(F)cccc3F)c2C)nc1 | inactive | 7.6
27 | CCOc1nn(-c2ccc(C3CC3)cn2)c(C)c1Oc1ccccc1Cl | inactive | 7.9
28 | COc1cnc(-n2nc(OC(C)C)c(Oc3c(F)cccc3F)c2C)cn1 | inactive | 6.1
29 | CCOc1nn(-c2ccc(C3CC3)nn2)c(C)c1Oc1cccc(Cl)c1Cl | inactive | 7.4
30 | Cc1cc(Br)cnc1-n1nc(OC(C)C)c(Oc2c(F)cccc2F)c1C | inactive | 5.9
31 | Cc1c(Oc2ccccc2F)c(OC(C)C)nn1-c1ccc(C2CC2)nn1 | inactive | 7.4
32 | CCOc1nn(-c2ccc(C3CC3)nn2)c(C)c1Oc1cccc(C(F)(F)F)c1 | inactive | 6.4
33 | CCOc1nn(-c2cc(C)ccn2)c(C)c1Cc1ccccc1 | inactive | 5.4
34 | CCOc1nn(-c2ccc(C3CC3)cn2)c(C)c1Oc1ccc(C(F)(F)F)cc1 | inactive | 5.3
35 | Cc1c(Oc2c(F)cccc2F)c(OC(C)C)nn1-c1ccc(C(C)(F)F)cn1 | inactive | 7.1
36 | Cc1c(Oc2cccc(F)c2F)c(OC(C)C)nn1-c1ccc(C2CC2)cn1 | inactive | 7.4
37 | CCOc1nn(-c2ccc(C3CC3)cn2)c(C)c1Oc1ccccc1F | inactive | 7.7
38 | Cc1c(Oc2c(F)cccc2F)c(OC(C)C)nn1-c1ccc(C(C)(C)O)cn1 | inactive | 6.7
39 | Cc1c(Oc2c(F)cccc2F)c(OC(C)C)nn1-c1ccc(Br)cn1 | inactive | 6.3
